Where “and” joins values, the source holds several entries; their conditions need not be identical. Equal entries are not always repeated.
System: naive mice
Experiment: Hot water tail immersion (tail-flick) test
Assay type: in vivo, mouse
Details: for tail-flick time, individual mice: water of 49°C, hr 1, male and female
Experimental: To compare pain-relevant vocalizations, only short and constant USVs of 37 kHz were counted […]
Tail-Flick immersion test
Naïve wildtype male and female mice (10 weeks of age) were habituated to handling and experimental set up for one week prior to data collection. On the day of data collection, a baseline measurement was performed prior to injection of compounds. One measurement consisted of immersion of 2/3rds of the tail in water (49 °C) for maximum ten seconds, three times with an interval of ten seconds between each measurement using the mean of the three measurements. After baseline, mice were injected s.c. with mPD5 10 μmol/kg mPD5, 10 mg/kg morphine (RH Pharmacy, Denmark, Vnr. 475249), or sterile PBS one hour before undergoing the tail-flick hot water immersion assay again.
Mice were pretreated with 10 μmol/kg mPD5, 10 mg/kg morphine (RH Pharmacy, Denmark, Vnr. 475249), or PBS 45 min before habituation to observation container (glass cylinder surrounded by mirrors on 2 sides) for 15 min. Mice then received an intraplantar injection of 20 µl capsaicin (1.6 ug/paw) (sigma CAS Number:404-86-4, diluted with 1:1:8 solution of tween-20, 70% ethanol, and MilliQ water) in one hind paw and were reintroduced to the observation container. Mice were recorded for three min after i.pl. injection with capsaicin and euthanized the same day. Mice were scored manually for the amount of time spent paw licking within three min after capsaicin administration.
Mice were 10 weeks old at the beginning of the experiment and acclimatized to the animal facility for two weeks after arrival. Male mice were randomized into two groups (n = 8/group) and weighed and injected s.c. once daily (between 3 pm and 4 pm) for 14 days with sterile PBS or 10 μmol/kg mPD5 (diluted in sterile PBS and pH adjusted to 7.4). After 14 days of dosing, the males were paired with female mice in fresh cages, and the number of pubs counted for 35 days (males were removed from the breeding cages after 14 days). Following the 14 days mating period, males were sacrificed by cervical dislocation caudae epidymidis were removed and weighed. Caudae epidymidis were cut into smaller pieces in 2 mL PBS (37 °C) and incubated (37 °C, 5% CO2) for 15 min. Following incubation, the mix was swirled gently, and 0.5 mL of the liquid was transferred to room tempered PBS to achieve a final volume of 1 mL.
Subsequently, sperm count was determined by transferring 50 µL of the sample to a hemocytometer, and each sample was determined in duplicate by an experimenter blinded to drug treatment. Following criteria were assessed: mobility (forward and circular), local tail mobility and total number. Females were weighed on a regular basis from removal of the males […]
Unless otherwise stated, all data were analysed using GraphPad Prism 9.4.1. and presented as mean +-SEM with the significance level set to p < 0.05. For locomotion and elevated plus maze, Ethovision XT 13 (Noldus) was used to track the distance travelled by each animal. For within group analysis (i.e., von Frey experiments), two-way ANOVA followed by Dunnett’s post hoc test was used. For between group analysis of multiple time points (i.e., locomotion experiments), two-way ANOVA was used without post hoc test due to lack of treatment significance in the ANOVA test. For the limb use experiment, data pre versus post treatment was analysed with a Kruskal Wallis test due to the non-parametric nature of the data. […]

| SMILES | effect on tail-flick latency compared with baseline (naive mice, both sexes, s.c. 10 μmol/kg) | tail-flick time, individual mice (10 umol/kg, female mice) | tail-flick time, individual mice (10 umol/kg, male mice) | tail-flick time, individual mice (10 mg/kg, female mice) | tail-flick time, individual mice (10 mg/kg, male mice) |
| --- | --- | --- | --- | --- | --- |
| CCCCCCCCCCCCCC(=O)N(CCOCCOCCC(=O)N[C@@H](Cc1c[nH]cn1)C(=O)N[C@@H](Cc1c[nH]c2ccccc12)C(=O)N[C@@H](CC(C)C)C(=O)N[C@@H](CCCCN)C(=O)N[C@H](C(=O)O)C(C)C)CCOCCOCCC(=O)N[C@@H](Cc1c[nH]cn1)C(=O)N[C@@H](Cc1c[nH]c2ccccc12)C(=O)N[C@@H](CC(C)C)C(=O)N[C@@H](CCCCN)C(=O)N[C@H](C(=O)O)C(C)C [mPD5, myristoyl-NPEG4-(HWLKV)2] | no effect on tail-flick latency | 3 and 4 (2×) and 5 | 3 (2×) and 2 and 4 |  |  |
| CN1CC[C@]23c4c5ccc(O)c4O[C@H]2[C@@H](O)C=C[C@H]3[C@H]1C5 [morphine] |  |  |  | 10 | 10 (2×) and 6 and 7 |

— PMC11530130, “Peripherally restricted PICK1 inhibitor mPD5 ameliorates pain behaviors in murine inflammatory and neuropathic pain models” (JCI Insight, 2024)
